Laboratory results taken from patent US20250243176A1, “(S)-1-(1-ACRYLOYLPIPERIDIN-3-YL)-2-FLUORO-5,6,7,8,9,10-HEXAHYDROCYCLO HEPTA[B]INDOLE-4-CARBOXAMIDE, AND RELATED CRYSTALLINE FORMS, COMPOSITIONS, AND METHODS THEREOF” (GB005, Inc., priority 2021, published 2025).
Like-named read-outs stand apart in the source and are kept apart here.

Key:
TEC = biological target: T1, TEC (Homo sapiens, UniProt P42680); assay: Kinome scan, TEC; format: biochemical
T1 sequence (P42680 1-631): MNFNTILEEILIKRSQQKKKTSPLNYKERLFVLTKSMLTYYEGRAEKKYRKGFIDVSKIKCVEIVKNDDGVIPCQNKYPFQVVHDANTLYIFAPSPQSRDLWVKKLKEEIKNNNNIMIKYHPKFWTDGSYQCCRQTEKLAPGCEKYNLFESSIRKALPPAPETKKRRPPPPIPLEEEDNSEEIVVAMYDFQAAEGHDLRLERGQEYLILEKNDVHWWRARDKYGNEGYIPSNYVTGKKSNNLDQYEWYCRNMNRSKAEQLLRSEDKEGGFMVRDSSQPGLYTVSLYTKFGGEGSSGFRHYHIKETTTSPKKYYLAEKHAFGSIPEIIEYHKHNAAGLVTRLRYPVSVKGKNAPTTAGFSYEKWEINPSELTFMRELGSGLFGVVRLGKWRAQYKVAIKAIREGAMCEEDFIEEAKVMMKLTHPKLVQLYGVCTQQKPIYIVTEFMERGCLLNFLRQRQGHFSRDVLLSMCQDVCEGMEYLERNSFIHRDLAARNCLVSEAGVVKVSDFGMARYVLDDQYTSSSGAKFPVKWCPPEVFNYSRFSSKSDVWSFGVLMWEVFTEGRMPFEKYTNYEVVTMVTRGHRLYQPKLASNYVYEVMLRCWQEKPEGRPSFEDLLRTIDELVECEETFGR
Excerpt: (S)-1-(1-acryloylpiperidin-3-yl)-2-fluoro-5,6,7,8,9,10-hexahydrocyclohepta[b]indole-4-carboxamide, hereinafter referred to as “Compound 1”, is an orally available, selective, potent inhibitor of Bruton's tyrosine kinase (BTK), thereby providing potential treatment options in BTK-driven diseases. The potency of Compound 1 for BTK inhibition is in the nM range in both cell-free enzymatic and whole blood functional assays.

[1] = Phase 1 CSF penetrance (CSF/unbound plasma concentration); format: in vivo; settings: both sexes, human, oral; for Kp at 2 h: CSF / unbound plasma
Experimental: Safety is assessed throughout the study and PK and PD are characterized using serial blood samples collected up to 48 hours post-dose for Compound 1 plasma concentrations, BTK target occupancy (TO) and target engagement (TE). Cerebrospinal fluid (CSF) samples are collected at 2 hours post-dose to characterize the relationship between Compound 1 plasma concentrations and CNS penetrance (CSF/Unbound plasma concentration). Compound 1 PK parameters (e.g., AUClast, AUCinf, Cmax, Tmax, t1/2) are estimated by standard noncompartmental methods.
Mean Compound 1 CSF:unbound plasma concentration ratios approximated 1 indicating unimpeded access of unbound drug in plasma into the CNS (see, e.g., Table 46, reported as Mean (% coefficient of variation), and FIG. 26 showing CSF to unbound plasma ratio by dose).

CYP3A = assay: Phase 1 drug-drug interaction with itraconazole (strong CYP3A inhibitor); format: in vivo, human; settings: for AUC(0-inf) / Cmax / T1/2 / Tmax: Cohort 12, 2 mg single dose; for AUC(0-inf) / Cmax: mean; for T1/2 / Tmax: median
Experimental: Cohort 12 is an open-label, fixed-sequence, multiple-dose DDI study with itraconazole (ITZ). Subjects receive a single oral dose of Compound 1 administered in the fasted state on Day 1. Beginning on Day 3 and continuing through to Day 6, subjects receive itraconazole 200 mg once daily (QD) in a fasted state. On Day 5, subjects receive Compound 1 administered in the fasted state, 1 hour after administration of itraconazole.
Results. Preliminary pharmacokinetic results evaluating the drug-drug interaction effect of a strong CYP3A inhibitor (itraconazole) on Compound 1 PK are presented, including 9 subjects from Cohort 12 receiving single doses of 2 mg Compound 1 under fasting conditions alone or in combination with once daily itraconazole 200 mg. Preliminary PK parameters are presented in Table 49 (all pharmacokinetic parameters of Table 49 are reported as Mean (% coefficient of variation), except for Tmax and t1/2, which are reported as Median (Min, Max)), and in FIG. 29 presenting the mean (SD) plasma concentration-time profiles of Compound 1.

[2] = Phase 1 food effect on pharmacokinetics; format: in vivo, human; settings: for Tmax / half-life / AUC(0-inf) / Cmax: human, plasma, oral; for AUC(0-inf) / Cmax: mean
Excerpt: Cohort 11 is a randomized, 2-treatment, 2-period, 2-sequence, single-dose level food effect evaluation. The formulation used in Cohort 11 is Formulation A. In Treatment Sequence FH, subjects receive Compound 1 in the fasted state on Day 1, and a second dose in the fed state (high-fat, high-calorie meal) on Day 8. In Treatment Sequence HF, subjects receive Compound 1 in the fed state (high-fat, high-calorie meal) on Day 1 and a second dose in the fasted state on Day 8. Days 2-7 are washout days.
Results: Preliminary pharmacokinetic results evaluating the effect of food on Compound 1 PK are presented, including 12 subjects from Cohort 11, […] 15 mg under fasting conditions, or in a fed state (with a moderate-fat meal or with a high-fat high-calorie meal). Preliminary PK parameters are presented in Table 48 (all pharmacokinetic parameters of […] are reported as Mean (% coefficient of variation), except for Tmax and t/2, which are reported as Median (Min, Max)), and in FIG. 28.

[3] = 2 mg Compound 1, itraconazole 200 mg once daily, fasting
[4] = fasted, Day 5 (+ITZ 200 mg once daily)
[5] = single 2 mg dose, fasting, alone or with itraconazole 200 mg once daily
[6] = 15 mg, Cohort 11, 15 mg single dose, Fasted
[7] = 15 mg, Cohort 11, 15 mg single dose, High-Fat
[8] = 15 mg, Cohorts 2 and 7, 15 mg single dose, Moderate-Fat

## C=CC(=O)N1CCC[C@@H](c2c(F)cc(C(N)=O)c3[nH]c4c(c23)CCCCC4)C1 [Compound 1, (S)-1-(1-acryloylpiperidin-3-yl)-2-fluoro-5,6,7,8,9,10-hexahydrocyclohepta[b]indole-4-carboxamide]
TEC
  inhibition at 1 µM: > 50%
[1]; Cohort 2, 15 mg single dose, 2 hr post-dose, mean, read-out: CSF/Unbound Plasma
  Kp at 2 h: 0.95
[1]; Cohort 3, 45 mg single dose, 2 hr post-dose, mean, read-out: CSF/Unbound Plasma
  Kp at 2 h: 0.95
[1]; healthy subjects, CSF samples at 2 hours post-dose, read-out: Mean CSF:unbound plasma concentration ratio
  Kp at 2 h: ~1
[1]; CSF, Cohort 2, 15 mg single dose, mean, read-out: CSF Conc (2 hr)
  concentration at 2 h: 0.9 ng/mL
[1]; CSF, Cohort 3, 45 mg single dose, mean, read-out: CSF Conc (2 hr)
  concentration at 2 h: 2.07 ng/mL
[1]; plasma (unbound), Cohort 2, 15 mg single dose, mean, read-out: Unbound Plasma Conc @2 hr
  concentration at 2 h: 0.83 ng/mL
[1]; plasma (unbound), Cohort 3, 45 mg single dose, mean, read-out: Unbound Plasma Conc @2 hr
  concentration at 2 h: 2.33 ng/mL
[1]; plasma, Cohort 2, 15 mg single dose, mean, read-out: Plasma Conc @2 hr
  concentration at 2 h: 63.2 ng/mL
[1]; plasma, Cohort 3, 45 mg single dose, mean, read-out: Plasma Conc @2 hr
  concentration at 2 h: 159 ng/mL
CYP3A; [3]
  increase of AUCinf on coadministration of itraconazole: 15%
  increase of Cmax on coadministration of itraconazole: 23%
CYP3A; fasted, Day 1 (Alone)
  AUC(0-inf): 46.7 ng·h/mL
  Cmax: 21.2 ng/mL
  T1/2: 3.13 h
  Tmax: 1.0 h
CYP3A; [4]
  AUC(0-inf): 54.4 ng·h/mL
  Cmax: 26.3 ng/mL
  T1/2: 3.14 h
  Tmax: 1.5 h
CYP3A; Cohort 12, 2 mg, fasted
  AUC0-inf, % GMR ITZ/Alone: 115%
  Cmax, % GMR ITZ/Alone: 123%
CYP3A; coadministration of itraconazole
  effect of a strong CYP3A inhibitor on PK: no clinically significant effect
CYP3A; [5]
  mean plasma Tmax: 1.0 to 1.5 h
  terminal half-life: approximately 3 hours
[2]; 15 mg single dose
  AUC0-inf, High-Fat/Fasted % GMR - paired: 120.3%
  AUC0-inf, Moderate-Fat/Fasted % GMR - unpaired: 107.9%
  Cmax, High-Fat/Fasted % GMR - paired: 68.0%
  Cmax, Moderate-Fat/Fasted % GMR - unpaired: 74.1%
[2]; both sexes, 15 mg, single 15 mg dose, fasting, moderate-fat meal or high-fat high-calorie meal, read-out: mean plasma Tmax
  Tmax: 1 to 2.5 h
[2]; both sexes, 15 mg, single 15 mg dose, fasting, moderate-fat meal or high-fat high-calorie meal, read-out: terminal half-life (converted)
  half-life: ~180 min
[2]; [6]
  AUC(0-inf): 312 ng·h/mL
  Cmax: 137 ng/mL
[2]; 15 mg, Cohort 11, 15 mg single dose, Fasted, median, read-out: T1/2 (converted)
  half-life: 173 min
[2]; 15 mg, Cohort 11, 15 mg single dose, Fasted, median, read-out: Tmax
  Tmax: 1 h
[2]; [7]
  AUC(0-inf): 356 ng·h/mL
  Cmax: 85.5 ng/mL
[2]; 15 mg, Cohort 11, 15 mg single dose, High-Fat, median, read-out: T1/2 (converted)
  half-life: 179 min
[2]; 15 mg, Cohort 11, 15 mg single dose, High-Fat, median, read-out: Tmax
  Tmax: 2.5 h
[2]; [8]
  AUC(0-inf): 322 ng·h/mL
  Cmax: 101 ng/mL
[2]; 15 mg, Cohorts 2 and 7, 15 mg single dose, Moderate-Fat, median, read-out: T1/2 (converted)
  half-life: 174 min
[2]; 15 mg, Cohorts 2 and 7, 15 mg single dose, Moderate-Fat, median, read-out: Tmax
  Tmax: 1.5 h
[2]; moderate fat, or high-fat high calorie meal, 15 mg
  effect of food on PK: no clinically significant effect
